Reference: PubChem BioAssay (NCI)
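Briefly, cells in 96-well plates were exposed to five compound concentrations for 48 h, and endpoints were estimated by linear interpolation. TGI is the concentration that stops growth completely.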

What was measured:
Assay in all cases: NCI-60 cell line screen, 48 h
COLO 205 colon = tested on: COLO 205 colon
KM12 colon = tested on: KM12 colon
NCI-H23 lung = tested on: NCI-H23 lung
HCT-15 colon = tested on: HCT-15 colon
LOX IMVI melanoma = tested on: LOX IMVI melanoma
TK-10 renal = tested on: TK-10 renal
EKVX NSCLC = tested on: EKVX NSCLC
SF-539 CNS = tested on: SF-539 CNS
MALME-3M melanoma = tested on: MALME-3M melanoma
SN12C renal = tested on: SN12C renal
786-0 renal = tested on: 786-0 renal
U251 CNS = tested on: U251 CNS
IGROV1 ovarian = tested on: IGROV1 ovarian
MOLT-4 leukemia = tested on: MOLT-4 leukemia
SNB-75 CNS = tested on: SNB-75 CNS
M14 melanoma = tested on: M14 melanoma
NCI-H226 lung = tested on: NCI-H226 lung
K-562 leukemia = tested on: K-562 leukemia
OVCAR-8 ovarian = tested on: OVCAR-8 ovarian
SK-MEL-28 melanoma = tested on: SK-MEL-28 melanoma
SNB-19 CNS = tested on: SNB-19 CNS
HL-60(TB) leukemia = tested on: HL-60(TB) leukemia
RXF-631 renal = tested on: RXF-631 renal
SF-268 CNS = tested on: SF-268 CNS
SNB-78 CNS = tested on: SNB-78 CNS
NCI-H460 lung = tested on: NCI-H460 lung
DLD-1 colon = tested on: DLD-1 colon
HCT-116 colon = tested on: HCT-116 colon
RXF 393 renal = tested on: RXF 393 renal
OVCAR-4 ovarian = tested on: OVCAR-4 ovarian
CCRF-CEM leukemia = tested on: CCRF-CEM leukemia
DMS 114 small cell lung = tested on: DMS 114 small cell lung
SK-MEL-5 melanoma = tested on: SK-MEL-5 melanoma
KM20L2 colon = tested on: KM20L2 colon
OVCAR-5 ovarian = tested on: OVCAR-5 ovarian
HOP-62 NSCLC = tested on: HOP-62 NSCLC
SW-620 colon = tested on: SW-620 colon
A498 renal = tested on: A498 renal
HOP-18 NSCLC = tested on: HOP-18 NSCLC
SK-OV-3 ovarian = tested on: SK-OV-3 ovarian
SK-MEL-2 melanoma = tested on: SK-MEL-2 melanoma
HCC-2998 colon = tested on: HCC-2998 colon
XF 498 CNS = tested on: XF 498 CNS
UO-31 renal = tested on: UO-31 renal
A549 NSCLC = tested on: A549 NSCLC
LXFL 529 NSCLC = tested on: LXFL 529 NSCLC
SR leukemia = tested on: SR leukemia
DMS 273 small cell lung = tested on: DMS 273 small cell lung
ACHN renal = tested on: ACHN renal
UACC-257 melanoma = tested on: UACC-257 melanoma
HT29 colon = tested on: HT29 colon
OVCAR-3 ovarian = tested on: OVCAR-3 ovarian
NCI-H522 lung = tested on: NCI-H522 lung
SF-295 CNS = tested on: SF-295 CNS
CAKI-1 renal = tested on: CAKI-1 renal
RPMI-8226 leukemia = tested on: RPMI-8226 leukemia
HOP-92 NSCLC = tested on: HOP-92 NSCLC
UACC-62 melanoma = tested on: UACC-62 melanoma
M19-MEL melanoma = tested on: M19-MEL melanoma

Measured: TGI

COC(=O)C(CCC1(C)OCCO1)=[N+]=[N-]
> 100 µM: COLO 205 colon | KM12 colon | NCI-H23 lung | HCT-15 colon | LOX IMVI melanoma | TK-10 renal | EKVX NSCLC | SF-539 CNS | MALME-3M melanoma | SN12C renal | 786-0 renal | U251 CNS | IGROV1 ovarian | MOLT-4 leukemia | SNB-75 CNS | M14 melanoma | NCI-H226 lung | K-562 leukemia | OVCAR-8 ovarian | SK-MEL-28 melanoma | SNB-19 CNS | HL-60(TB) leukemia | RXF-631 renal | SF-268 CNS | SNB-78 CNS | NCI-H460 lung | DLD-1 colon | HCT-116 colon | RXF 393 renal | OVCAR-4 ovarian | CCRF-CEM leukemia | DMS 114 small cell lung | SK-MEL-5 melanoma | KM20L2 colon | OVCAR-5 ovarian | HOP-62 NSCLC | SW-620 colon | A498 renal | HOP-18 NSCLC | SK-OV-3 ovarian | SK-MEL-2 melanoma | HCC-2998 colon | XF 498 CNS | UO-31 renal | A549 NSCLC | LXFL 529 NSCLC | SR leukemia | DMS 273 small cell lung | ACHN renal | UACC-257 melanoma | HT29 colon | OVCAR-3 ovarian | NCI-H522 lung | SF-295 CNS

Cc1cc(Br)ccc1N=Nc1c(C)nn(-c2ccccc2)c1-c1ccccc1
> 100 µM: COLO 205 colon | KM12 colon | CAKI-1 renal | NCI-H23 lung | HCT-15 colon | LOX IMVI melanoma | TK-10 renal | EKVX NSCLC | SF-539 CNS | MALME-3M melanoma | SN12C renal | 786-0 renal | U251 CNS | IGROV1 ovarian | MOLT-4 leukemia | SNB-75 CNS | M14 melanoma | K-562 leukemia | OVCAR-8 ovarian | SK-MEL-28 melanoma | RPMI-8226 leukemia | SNB-19 CNS | HL-60(TB) leukemia | SF-268 CNS | HOP-92 NSCLC | SNB-78 CNS | NCI-H460 lung | DLD-1 colon | HCT-116 colon | RXF 393 renal | OVCAR-4 ovarian | CCRF-CEM leukemia | DMS 114 small cell lung | SK-MEL-5 melanoma | OVCAR-5 ovarian | HOP-62 NSCLC | SW-620 colon | UACC-62 melanoma | A498 renal | HOP-18 NSCLC | SK-OV-3 ovarian | SK-MEL-2 melanoma | XF 498 CNS | UO-31 renal | A549 NSCLC | LXFL 529 NSCLC | SR leukemia | DMS 273 small cell lung | ACHN renal | UACC-257 melanoma | M19-MEL melanoma | HT29 colon | OVCAR-3 ovarian | NCI-H522 lung | SF-295 CNS
